From patent US11535606B2, “Substituted quinoline-8-carbonitrile derivatives with androgen receptor degradation activity and uses thereof” (ACCUTAR BIOTECHNOLOGY INC., priority 2019, dated 2022)
Numbering of substitutions follows the chain as printed.

Legend:
Assay type in all cases: cell-based
Settings in all cases: 24 hours after administration, DC50 = concentration needed for 50% target protein degradation
[1] = system: androgen receptor (AR); assay: AR degradation activity in 22Rv1 cells (Western blot)
Experimental: (§1) LNCAP, VCAP and 22Rv1 cells were plated in 24-well plates at 1.5×10E5 cells/well in the RPMI growth medium containing 10% FBS and 1% Penicillin Streptomycin, and then incubated at 37° C. overnight. The following day, the test compound was administered to the cells by using 1000× compound stock solution prepared in DMSO at various concentrations. After administration of the compound, the cells were then incubated at 37° C. for 24 hours. Upon completion, the cells were washed with PBS and protein was collected in Laemmli sample buffer (1×; VWR International). Proteins in cell lysate were separated by SDS-PAGE and transferred to Odyssey nitrocellulose membranes (Licor) with Iblot® dry blotting transfer system (ThermoFisher). Nonspecific binding was blocked by incubating membranes with Intercept Blocking Buffer (Licor) for 1 hour at room temperature with gentle shaking. The membranes were then incubated overnight at 4° C. with Primary antibodies rabbit anti-AR (1:1,000, Cell Signaling, 5153) and mouse anti-GAPDH (1:5,000, Santa Cruz Biotechnology, sc-47724) diluted in Intercept Blocking Buffer containing 0.1% Tween 20. After washing 3 times with TBS-T, the membranes were incubated with IRDye® 800CW goat anti-mouse IgG (1:20,000, Licor) or IRDye® 800CW goat anti-rabbit IgG (1:20,000, Licor) for 1 hour. After TBS-T washes, membranes were rinsed in TBS and scanned on Odyssey® CLx Imaging System (Licor). The bands were quantified using Image Studio™ Software (Licor).
(§2) Table 4 summarizes the androgen receptor (AR) degradative activity of exemplary compounds in LNCAP, VCAP and 22Rv1 cell lines 24 hours after administration. DC50: compound concentration needed for 50% target protein degradation.

[2] = target: T1, androgen receptor (AR) (Homo sapiens, UniProt P10275); assay: AR degradation activity in VCAP cells (Western blot)
T1 construct: endogenous in cells; host or cells: VCAP
T1 sequence (P10275 1-920): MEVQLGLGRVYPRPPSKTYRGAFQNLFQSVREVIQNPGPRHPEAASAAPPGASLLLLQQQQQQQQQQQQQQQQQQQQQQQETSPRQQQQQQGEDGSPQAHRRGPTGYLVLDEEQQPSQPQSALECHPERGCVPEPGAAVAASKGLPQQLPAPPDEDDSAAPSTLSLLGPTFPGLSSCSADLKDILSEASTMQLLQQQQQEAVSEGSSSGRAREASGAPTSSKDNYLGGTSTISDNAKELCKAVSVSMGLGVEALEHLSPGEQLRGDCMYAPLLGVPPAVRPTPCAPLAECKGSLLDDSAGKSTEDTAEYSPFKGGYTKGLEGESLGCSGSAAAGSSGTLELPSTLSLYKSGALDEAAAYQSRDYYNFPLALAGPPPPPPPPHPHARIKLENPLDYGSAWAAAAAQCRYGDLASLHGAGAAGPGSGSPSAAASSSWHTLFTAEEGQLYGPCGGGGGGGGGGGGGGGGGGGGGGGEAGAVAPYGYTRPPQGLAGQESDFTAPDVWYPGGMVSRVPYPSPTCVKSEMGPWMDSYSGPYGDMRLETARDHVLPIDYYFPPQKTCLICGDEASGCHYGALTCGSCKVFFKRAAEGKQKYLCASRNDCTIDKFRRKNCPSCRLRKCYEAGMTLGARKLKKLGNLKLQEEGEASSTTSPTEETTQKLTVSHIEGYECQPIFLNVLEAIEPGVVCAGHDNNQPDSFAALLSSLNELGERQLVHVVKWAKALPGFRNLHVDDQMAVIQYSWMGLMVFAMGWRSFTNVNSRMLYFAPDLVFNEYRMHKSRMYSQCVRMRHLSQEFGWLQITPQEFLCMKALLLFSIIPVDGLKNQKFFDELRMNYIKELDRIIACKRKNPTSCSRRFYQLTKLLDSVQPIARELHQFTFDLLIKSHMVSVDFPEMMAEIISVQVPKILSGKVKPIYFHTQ
Experimental: as §1, §2

[3] = target: T2, androgen receptor (AR) (Homo sapiens, UniProt P10275, T878A); assay: AR degradation activity in LNCAP cells (Western blot)
T2 construct: endogenous in cells; host or cells: LNCAP
T2 sequence (P10275 1-920 T878A): T1 sequence (P10275 1-920) with T878A
Experimental: as §1, §2

Row | DC50 [1] [nM] | DC50 [2] [nM] | DC50 [3] [nM] | Structure (SMILES)
1 | < 10 | < 10 | < 10 | N#Cc1ccc(O[C@H]2CC[C@H](NC(=O)c3ccc(N4CCC(CN5CCN(c6ccc7c(c6)CN([C@H]6CCC(=O)NC6=O)C7=O)CC5)CC4)nc3)CC2)c2cccnc12 [Compound 3-29, trans-N-(4-((8-cyanoquinolin-5-yl)oxy)cyclohexyl)-6-(4-((4-(2-((S)-2,6-dioxopiperidin-3-yl)-1-oxoisoindolin-5-yl)piperazin-1-yl)methyl)piperidin-1-yl)nicotinamide]
2 | < 10 | < 10 | < 10 | N#Cc1ccc(O[C@H]2CC[C@H](NC(=O)c3ccc(N4CCC(CN5CCN(c6ccc7c(c6)CN([C@H]6CCC(=O)NC6=O)C7=O)CC5)CC4)c(F)c3)CC2)c2cccnc12 [Compound 3-31, trans-N-(4-((8-cyanoquinolin-5-yl)oxy)cyclohexyl)-4-(4-((4-(2-((S)-2,6-dioxopiperidin-3-yl)-1-oxoisoindolin-5-yl)piperazin-1-yl)methyl)piperidin-1-yl)-3-fluorobenzamide]
3 | < 10 | < 10 | < 10 | N#Cc1ccc(OC2CCC(NC(=O)c3ccc(N4CCC(CN5CCN(c6cc7c(cc6F)C(=O)N(C6CCC(=O)NC6=O)C7=O)CC5)CC4)nn3)CC2)c2cccnc12 (stereo not drawn) [Compound 3-36]
